Test results taken from patent US20240025849A1 (MAX DELBRÜCK-CENTRUM FÜR MOLEKULARE MEDIZIN IN DER …, priority 2020, published 2024).
“Also recorded” adds a separate entry of the source.

System: C57Bl/6 mice after 30 minutes MCAO
Test: Middle cerebral artery occlusion (MCAO) model of mild ischemic injury
Format: in vivo, mouse
Conditions: 5 mg/kg i.p. daily
Procedure: Animals and Group Allocation for middle cerebral artery occlusion (MCAO) study. C57BL/6 (13 weeks old, Charles River, Germany) male mice were handled according to governmental (LaGeSo-G0249/15) and internal (MDC/Charitd) rules and regulations, having free access to food and water. A total of 24 male mice were analysed after a 30 minutes of left-sided MCAO. Animals were randomly attributed to treatment paradigms, and experimenters were blinded at all stages of interventions. The mice were injected intraperitoneally (i.p.) every day for the 7 days, subsequently of the behavioral tests, with the compound (n=11) or with the vehicle ([…], n=13).
Induction of cerebral ischemia. Mice were anesthetized for induction with 3-4% isoflurane and maintained in 1.5% isoflurane in 70% N2O and 30% O2 using a vaporizer. MCAO was essentially performed as described elsewhere (Endres et al., 2000). In brief, brain ischemia was induced with a silicone rubber-coated monofilament 7-0, diameter 0.06-0.09 mm, length 20 mm; diameter with coating […]; coating length 9-10 mm. The filament was introduced into the internal carotid artery up to the anterior cerebral artery. Thereby, the middle cerebral artery and anterior choroidal arteries were occluded. The filament was removed after 30 min to allow reperfusion.
MRI was performed using a 7 Tesla rodent scanner (Pharmascan 70/16, Bruker BioSpin, Bruker, Billerica, USA) with a 16 cm horizontal bore magnet and a 9 cm (inner diameter) shielded gradient with an H-resonance-frequency of 300 MHz and a maximum gradient strength of 300 mT/m. For imaging a 20 mm-1H-RF quadrature-volume resonator with an inner diameter of 20 mm was used. Data acquisition and image processing were carried out with the Bruker software Paravision 5.1. During the examinations mice were placed on a heated circulating water blanket to ensure constant body temperature of 37° C. Anaesthesia was induced with 2.5% and maintained with 2.0-1.5% isoflurane (Forene, Abbot, Wiesbaden, Germany) delivered in an O2/N2 mixture (0.3/0.7 L/min) via a facemask under constant ventilation monitoring (Small Animal Monitoring & Gating System, SA Instruments, New York, USA). For imaging the mouse brain a T2-weighted 2D turbo spin-echo sequence was used (imaging parameters TR/TE=4200/36 ms, rare factor 8, 4 averages, 32 axial slices with a slice thickness of 0.5 mm, field of view of 2.56×2.56 cm, matrix size 256×256).
Calculation of lesion volume was carried out with the program Analyze 10.0 (AnalyzeDirect, Inc., Overland Park, USA). The hyperintense ischemic areas in axial T2-weighted images were assigned with a region of interest tool. This enables threshold based segmentation by connecting all pixels within a specified threshold range about the selected seed pixel and results in 3D object map of the whole stroke region. Further the total volume of the whole object map was automatically calculated.
The Rotarod test was performed to access motor coordination using a treadmill with a diameter of 3 cm (TSE Systems, Chesterfield, USA). This test was performed with accelerating velocity (4-40 rpm) and maximal velocity was achieved after 300 s. The time until the animals dropped was measured. Animals were trained on day 2 and 3 before MCAO and baseline was taken on the day before MCAO. Tests were always performed four times and means were used for statistical analysis.
A vertical pole (80 cm high with rough surface) was used for this test, to analyse extrapyramidal motor locomotion. Mice were placed head upward on the top of the pole. The time taken to orientate the body completely downwards, making a 180° turn (t turn), and to reach the floor with all four paws (t down) were recorded. If the animal was unsuccessful for either task, it was scored the maximum time that any other animal from the same experimental group took to perform the task. Animals were trained on day 2 and 3 before MCAO and baseline was taken on the day before MCAO. […]

COc1ccc(NC(=O)C(NC(=O)C2CCCN2C(=O)OCc2ccccc2)c2ccc(OC)cc2)cc1 (stereo not drawn) [C1]
pole test, time descending the pole (day 2 after MCAO): 6.592 s | pole test, time to turn 180° (day 2 after MCAO): 1.175 s | accelerated Rotarod test (day 2 and 5 after MCAO, vs vehicle): no differences; also recorded: No significant difference | volume of the ischemic lesion (MRI) (day 3 after MCAO, vs vehicle): did not cause a significant difference; also recorded: No significant difference | pole test, difference to control group (day 5 after MCAO): No differences were observed | corner test, turns to the left in 10 turns (day 6 after MCAO): 7.00
